Measured values published in patent US9266876B2 (Actelion Pharmaceuticals Ltd., priority 2012, dated 2016).
Where two headings read alike, the source gives them in different places. Values belong to the compound of their own block, whether it stands above or below them.

Legend:
[1] = target: human CXCR3A (Homo sapiens (Human), UniProt P49682); assay: FLIPR assay; type: cell-based; details: CHO-K1 cells expressing the human CXCR3A coupled to Galpha(16); CXCL10 agonist 20 nM; Fluo-4-AM fluorescence; mean values if determined several times
Sequence of human CXCR3A (P49682 whole entry): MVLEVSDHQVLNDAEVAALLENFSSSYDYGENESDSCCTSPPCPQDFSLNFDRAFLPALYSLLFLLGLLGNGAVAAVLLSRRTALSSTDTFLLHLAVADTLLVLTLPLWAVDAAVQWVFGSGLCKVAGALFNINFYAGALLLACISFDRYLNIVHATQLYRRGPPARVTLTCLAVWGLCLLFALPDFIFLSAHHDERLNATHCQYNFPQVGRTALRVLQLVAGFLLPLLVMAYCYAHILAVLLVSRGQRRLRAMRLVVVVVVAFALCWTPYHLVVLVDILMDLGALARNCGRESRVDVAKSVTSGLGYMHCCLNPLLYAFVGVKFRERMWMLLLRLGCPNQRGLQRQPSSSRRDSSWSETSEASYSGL
How it was run: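 CHO-K1 cells expressing CXCR3A coupled to Gα16 were loaded with Fluo-4-AM for 1 h in Hepes-buffered HBSS, pH 7.4, with 5 mM probenecid. Compound dilutions were added on the FLIPR, followed by CXCL10 (added as a 20 nM solution). Baseline-subtracted peak fluorescence was fitted to a single-site curve for IC50.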

[2] = target: CXCR3 (Homo sapiens (Human), UniProt P49682); assay: Receptor internalization assay; type: cell-based; details: read-out: Internalization IC50
Sequence of CXCR3 (P49682 whole entry): as above
How it was run: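 In human whole blood, compounds were incubated with CXCL10 (9 nM final) for 30 min at 37 °C to drive receptor internalization, then stained with anti-CXCR3/CD3 antibodies and lysed of red cells. Flow cytometry measured mean surface CXCR3 fluorescence on CD3+ cells, and IC50 came from single-site dose-response fits.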

[3] = human whole blood, final CXCL10 concentration 9 nM, 30 min 37° C., CXCR3 cell surface expression on CD3 positive cells, flow cytometer

Structure (SMILES): C[C@@H]1CN(c2sc(C(F)(F)F)nc2-c2nc3ccccc3[nH]2)CCN1C(=O)CN1CCc2[nH]ncc2C1 [Example 217, 1-{(R)-4-[4-(1H-Benzoimidazol-2-yl)-2-trifluoromethyl-thiazol-5-yl]-2-methyl-piperazin-1-yl}-2-(1,4,6,7-tetrahydro-pyrazolo[4,3-c]pyridin-5-yl)-ethanone]
IC50 [1]: 21 nM
IC50 [2, 3]: 5010 nM

Structure (SMILES): Cc1nc(CN(C)C)nn1CC(=O)N1CCN(c2sc(C(F)(F)F)nc2-c2nc3ccccc3[nH]2)C[C@H]1C [Example 218, 1-{(R)-4-[4-(1H-Benzoimidazol-2-yl)-2-trifluoromethyl-thiazol-5-yl]-2-methyl-piperazin-1-yl}-2-(3-dimethylaminomethyl-5-methyl-[1,2,4]triazol-1-yl)-ethanone]
IC50 [1]: 8 nM
IC50 [2, 3]: 540 nM

Structure (SMILES): C[C@@H]1CN(c2sc(C(F)(F)F)nc2-c2nc3ccccc3[nH]2)CCN1C(=O)Cn1cc(C2CCNCC2)cn1 [Example 221, 1-{(R)-4-[4-(1H-Benzoimidazol-2-yl)-2-trifluoromethyl-thiazol-5-yl]-2-methyl-piperazin-1-yl}-2-(4-piperidin-4-yl-pyrazol-1-yl)-ethanone]
IC50 [1]: 6 nM
IC50 [2, 3]: 1090 nM

Structure (SMILES): C[C@@H]1CN(c2sc(C(F)(F)F)nc2-c2nc3ccccc3[nH]2)CCN1C(=O)Cn1cc(C2CCN(C)CC2)cn1 [Example 222, 1-{(R)-4-[4-(1H-Benzoimidazol-2-yl)-2-trifluoromethyl-thiazol-5-yl]-2-methyl-piperazin-1-yl}-2-[4-(1-methyl-piperidin-4-yl)-pyrazol-1-yl]-ethanone]
IC50 [1]: 16 nM
IC50 [2, 3]: 1500 nM

Structure (SMILES): C[C@@H]1CN(c2sc(CN(C)C)nc2-c2nc3ccccc3[nH]2)CCN1C(=O)Cn1cnc2cccnc21 [Example 223, 1-{(R)-4-[4-(1H-Benzoimidazol-2-yl)-2-dimethylaminomethyl-thiazol-5-yl]-2-methyl-piperazin-1-yl}-2-imidazo[4,5-b]pyridin-3-yl-ethanone]
IC50 [1]: 27 nM
IC50 [2, 3]: 1130 nM

Structure (SMILES): C[C@@H]1CN(c2sc(CO)nc2-c2nc3ccccc3[nH]2)CCN1C(=O)Cn1cnc2cccnc21 [Example 225, 1-{(R)-4-[4-(1H-Benzoimidazol-2-yl)-2-hydroxymethyl-thiazol-5-yl]-2-methyl-piperazin-1-yl}-2-imidazo[4,5-b]pyridin-3-yl-ethanone]
IC50 [1]: 54 nM
IC50 [2, 3]: 3460 nM

Structure (SMILES): O=C(Cn1cnc2cccnc21)N1CCN(c2sc(C(F)(F)F)nc2-c2nc3ccccc3[nH]2)CC1 [Example 226, 1-{4-[4-(1H-Benzoimidazol-2-yl)-2-trifluoromethyl-thiazol-5-yl]-piperazin-1-yl}-2-imidazo[4,5-b]pyridin-3-yl-ethanone]
IC50 [1]: 1 nM
IC50 [2, 3]: 363 nM

Structure (SMILES): Cc1nc(C)n(CC(=O)N2CCN(c3sc(C(F)(F)F)nc3-c3nc4c(F)cccc4[nH]3)C[C@H]2C)n1 [Example 230, 2-(3,5-Dimethyl-[1,2,4]triazol-1-yl)-1-{(R)-4-[4-(4-fluoro-1H-benzoimidazol-2-yl)-2-trifluoromethyl-thiazol-5-yl]-2-methyl-piperazin-1-yl}-ethanone]
IC50 [1]: 1 nM
IC50 [2, 3]: 139 nM

Structure (SMILES): Cc1nc(C)n(CC(=O)N2CCN(c3sc(C(F)(F)F)nc3-c3nc4ccc(N5CCOCC5)cc4[nH]3)C[C@H]2C)n1 [Example 233, 2-(3,5-Dimethyl-[1,2,4]triazol-1-yl)-1-{(R)-2-methyl-4-[4-(6-morpholin-4-yl-1H-benzoimidazol-2-yl)-2-trifluoromethyl-thiazol-5-yl]-piperazin-1-yl}-ethanone]
IC50 [1]: 6 nM
IC50 [2, 3]: 376 nM

Structure (SMILES): Cc1nc(C)n(CC(=O)N2CCN(c3sc(C(F)(F)F)nc3-c3nc4ccc(-c5noc(C)n5)cc4[nH]3)C[C@H]2C)n1 [Example 236, 2-(3,5-Dimethyl-[1,2,4]triazol-1-yl)-1-((R)-2-methyl-4-{4-[6-(5-methyl-[1,2,4]oxadiazol-3-yl)-1H-benzoimidazol-2-yl]-2-trifluoromethyl-thiazol-5-yl}-piperazin-1-yl)-ethanone]
IC50 [1]: 3 nM
IC50 [2, 3]: 265 nM

Structure (SMILES): Cc1nc(C)n(CC(=O)N2CCN(c3sc(C(F)(F)F)nc3-c3nc4ccc(C5CCN(C)CC5)cc4[nH]3)C[C@H]2C)n1 [Example 237, 2-(3,5-Dimethyl-[1,2,4]triazol-1-yl)-1-((R)-2-methyl-4-{4-[6-(1-methyl-piperidin-4-yl)-1H-benzoimidazol-2-yl]-2-trifluoromethyl-thiazol-5-yl}-piperazin-1-yl)-ethanone]
IC50 [1]: 2 nM
IC50 [2]: 84 nM

The remaining lines, values ahead:

IC50 [1]: 4 nM
IC50 [2, 3]: 1460 nM
Structure (SMILES): Cc1cc(CC(=O)N2CCN(c3sc(C(F)(F)F)nc3-c3nc4ccccc4[nH]3)C[C@H]2C)cc(C)n1 [Example 219]

IC50 [1]: 19 nM
IC50 [2, 3]: 2620 nM
Structure (SMILES): Cc1cc(C)nc(CC(=O)N2CCN(c3sc(C(F)(F)F)nc3-c3nc4ccccc4[nH]3)C[C@H]2C)c1 [Example 220]

IC50 [1]: 8 nM
IC50 [2, 3]: 69 nM
Structure (SMILES): Cc1nc(C)n(CC(=O)N2CCN(c3sc(C(F)(F)F)nc3-c3nc4ccccc4[nH]3)C[C@H]2CN(C)C)n1 [Example 227, 1-{(R)-4-[4-(1H-Benzoimidazol-2-yl)-2-trifluoromethyl-thiazol-5-yl]-2-dimethylaminomethyl-piperazin-1-yl}-2-(3,5-dimethyl-[1,2,4]triazol-1-yl)-ethanone]

IC50 [1]: 4 nM
IC50 [2, 3]: 12 nM
Structure (SMILES): CN(C)C[C@@H]1CN(c2sc(C(F)(F)F)nc2-c2nc3ccccc3[nH]2)CCN1C(=O)Cn1cnc2cccnc21 [Example 228, 1-{(R)-4-[4-(1H-Benzoimidazol-2-yl)-2-trifluoromethyl-thiazol-5-yl]-2-dimethylaminomethyl-piperazin-1-yl}-2-imidazo[4,5-b]pyridin-3-yl-ethanone]

IC50 [1]: 1 nM
IC50 [2, 3]: 98 nM
Structure (SMILES): CN(C)C[C@@H]1CN(c2scnc2-c2nc3ccccc3[nH]2)CCN1C(=O)Cn1cnc2cccnc21 [Example 229, 1-{(R)-4-[4-(1H-Benzoimidazol-2-yl)-thiazol-5-yl]-2-dimethylaminomethyl-piperazin-1-yl}-2-imidazo[4,5-b]pyridin-3-yl-ethanone]

IC50 [1]: 1 nM
IC50 [2, 3]: 332 nM
Structure (SMILES): Cc1nc(C)n(CC(=O)N2CCN(c3sc(C(F)(F)F)nc3-c3nc4c(F)c(F)ccc4[nH]3)C[C@H]2C)n1 [Example 231, 1-{(R)-4-[4-(4,5-Difluoro-1H-benzoimidazol-2-yl)-2-trifluoromethyl-thiazol-5-yl]-2-methyl-piperazin-1-yl}-2-(3,5-dimethyl-[1,2,4]triazol-1-yl)-ethanone]

IC50 [1]: 7 nM
IC50 [2, 3]: 494 nM
Structure (SMILES): Cc1nc(C)n(CC(=O)N2CCN(c3sc(C(F)(F)F)nc3-c3nc4c(C(F)(F)F)cccc4[nH]3)C[C@H]2C)n1 [Example 232, 2-(3,5-Dimethyl-[1,2,4]triazol-1-yl)-1-{(R)-2-methyl-4-[2-trifluoromethyl-4-(4-trifluoromethyl-1H-benzoimidazol-2-yl)-thiazol-5-yl]-piperazin-1-yl}-ethanone]

IC50 [1]: 6 nM
IC50 [2, 3]: 822 nM
Structure (SMILES): Cc1nc(C)n(CC(=O)N2CCN(c3sc(C(F)(F)F)nc3-c3nc4ccc(-n5cncn5)cc4[nH]3)C[C@H]2C)n1 [Example 234, 2-(3,5-Dimethyl-[1,2,4]triazol-1-yl)-1-{(R)-2-methyl-4-[4-(6-[1,2,4]triazol-1-yl-1H-benzoimidazol-2-yl)-2-trifluoromethyl-thiazol-5-yl]-piperazin-1-yl}-ethanone]
